# Test results as given in patent US11793782B2, “Therapeutic agents for neurodegenerative diseases” (priority 2017, dated 2023).
# How the values were obtained:
# [1] = test system: NPC Chinese Hamster Ovary (CHO) cells; test: Relative lysosomal volume via LysoTracker, NPC CHO cells; format: cell-based; settings: 1 mM, 72 hours, p<0.01 versus untreated NPC1-null
# Excerpt: Relative lysosomal volume was quantified via LysoTracker.
# [2] = test system: amyloid precursor protein C-terminal fragments (APP-CTFs); test: APP-CTF levels in cerebellum of NPC1−/− mice; format: in vivo, mouse; settings: 0.1 g/kg body weight daily from 3 weeks of age, sacrificed at 8 weeks
# Protocol: The Niemann-Pick Disease Type C (NPC) mouse model shares a number of pathological features with Alzheimer's disease (AD) as described herein. […] Mice were sacrificed at 8 weeks of age. Levels of amyloid precursor protein C-terminal fragments (APP-CTFs) were evaluated relative to total amyloid precursor protein (APP) levels in the cerebellum for wild type, untreated wild type NPC1^−/− mice, and AL-treated wild type NPC1^−/− mice. Levels of microtubule-associated protein 1A/1B-light chain 3-phosphatidylethanolamine conjugate (LC3-II) were also evaluated relative to levels of tubulin loading control for wild type, untreated wild type NPC1^−/− mice, and AL-treated wild type NPC1^−/− mice.
# MSA-P patients = test: Case studies, multiple system atrophy Parkinson type (MSA-P) patients; format: in vivo, human
# Excerpt: Medication was stopped. […] The patient evaluated after one month on acetyl-DL-leucine. […] Episodes of mental confusion completely disappeared. The patient's cognitive structure seemed much clearer and straighter. […] The patient's spouse supported continuing the medication.
# SCA 28 patient = test: Case study, spinocerebellar ataxia 28 (SCA 28); format: in vivo, human
# Protocol: A gait analysis was performed before treatment commenced. After about one month of treatment, medication was stopped and the patient was evaluated. […] The patient reported that they no longer walked like a robot and could climb the stairs without using the banisters.
# [3] = test system: Tay-Sachs disease patient fibroblasts; test: Glycosphingolipid (GSL) levels by HPLC, Tay-Sachs fibroblasts; format: cell-based, human; settings: 1 mM for 6 days, p<0.05
# [4] = test system: downbeat nystagmus patients; test: Case studies, downbeat nystagmus patients; format: in vivo, human
# Excerpt: The patient was diagnosed with downbeat nystagmus: the patient was severely impaired by blurred vision (oscillopsia) due to the nystagmus, and experienced difficulties while reading and writing. The patient's visual acuity was: right 0.75, left 0.67, binocular 0.83, and the downbeat nystagmus was documented by video-oculography. […] The patient could partially suppress the nystagmus by visual fixation, as evaluated using a target center (dot presented in the center of a display for 30 seconds, FIG. 13A) and in complete darkness using goggles covered with special glasses for 45 seconds (FIG. 13B). The results (median of slow phase velocity, SPV) were as follows: Target Center-horizontal: −0.02°/s, vertical: 2.41°/s; Complete Darkness-horizontal: 0.05°/s, vertical: 3.27°/s (FIG. 13C).
# [5] = MSA-P Patient 2, after 1 month of treatment
# [6] = MSA-P Patient 2, after 1 month without treatment
# [7] = MSA-P Patient 2, after 2 months without treatment
# [8] = downbeat nystagmus Patient 1, approximately 14 weeks after starting
# [9] = downbeat nystagmus Patient 2, on treatment, Complete Darkness
# [10] = downbeat nystagmus Patient 2, on treatment, Target Center
smiles,measurement,setting,value
CC(=O)NC(CC(C)C)C(=O)O (racemic) [acetyl-DL-leucine],Lysosomal volume (LysoTracker),[1],significantly reduced lysosomal volume
same,APP-CTF levels relative to total APP in the cerebellum,[2],lowering of APP-CTFs
same,Clinical observation,"MSA-P patients; MSA-P Patient 1, 5 g/day, after 3 weeks","no significant improvement of gait, reduction of falls or improved hypokinetic rigid-syndrome"
same,Clinical observation,"MSA-P patients; MSA-P Patient 2, 5 g per day, after one month of treatment",subjective improvement of dizziness
same,Coefficient of variation (temporal),MSA-P patients; [5],2.7
same,Double stance,MSA-P patients; [5],25.6%
same,Functional Gait Assessment,MSA-P patients; [5],24/30
same,Max. speed,MSA-P patients; [5],214 cm/s
same,Step cycle length,MSA-P patients; [5],120 cm
same,Track width,MSA-P patients; [5],3.8 cm
same,cadence,MSA-P patients; [5],109 steps/minute
same,speed,MSA-P patients; [5],109 cm/s
same,Coefficient of variation (temporal),MSA-P patients; [6],1.7
same,Double stance,MSA-P patients; [6],22.5%
same,Functional Gait Assessment,MSA-P patients; [6],25/30
same,Max. speed,MSA-P patients; [6],196 cm/s
same,Step cycle length,MSA-P patients; [6],126 cm
same,Track width,MSA-P patients; [6],2.3 cm
same,cadence,MSA-P patients; [6],109 steps/minute
same,speed,MSA-P patients; [6],114 cm/s
same,Coefficient of variation (temporal),MSA-P patients; [7],2.1
same,Double stance,MSA-P patients; [7],26.7%
same,Functional Gait Assessment,MSA-P patients; [7],22/30
same,Max. speed,MSA-P patients; [7],177 cm/s
same,Step cycle length,MSA-P patients; [7],107 cm
same,Track width,MSA-P patients; [7],3.4 cm
same,cadence,MSA-P patients; [7],106 steps/minute
same,speed,MSA-P patients; [7],94 cm/s
same,Symptoms without medication,"MSA-P patients; MSA-P Patient 2, after two months without medication",worsening of general symptomatology
same,Cognitive function (wife's report),"MSA-P patients; MSA-P Patient 3, 5 g per day, after one month",significant improvement of cognitive function
same,Gait function,"MSA-P patients; MSA-P Patient 3, after one month",no improvement of gait function
same,Clinical observation,"SCA 28 patient; 5 g per day, after about one month",improvement of the symptomatology
same,Coefficient of variation (temporal),"SCA 28 patient; after treatment for one month, before 4.1",2.1
same,Track width,"SCA 28 patient; after treatment for one month, before 14.5",11.7 cm
same,Functional Gait Assessment,"SCA 28 patient; after treatment for one month, before 24/30",23/30
same,Double stance,"SCA 28 patient; after treatment for one month, before 24.9",23.8%
same,cadence,"SCA 28 patient; after treatment for one month, before 100",105 steps/minute
same,Self-chosen speed,"SCA 28 patient; after treatment for one month, before 101",118 cm/s
same,Step cycle length,"SCA 28 patient; after treatment for one month, before 122",135 cm
same,Maximum speed,"SCA 28 patient; after treatment for one month, before 188",201 cm/s
same,GSL storage (decrease),[3],statistically significant
same,Effect of temporary suspension of the medication,[4]; downbeat nystagmus Patient 1,considerable deterioration
same,Patient-reported benefit,"[4]; downbeat nystagmus Patient 1, 5 gram per day, after 10 days",significant benefit
same,Nystagmus (clinical examination),[4]; [8],reduction of the nystagmus
same,Posturography,[4]; [8],reduction of postural sway
same,"Visual acuity, left","[4]; downbeat nystagmus Patient 1, approximately 14 weeks after starting, before 0.67",1.0
same,"Visual acuity, right","[4]; downbeat nystagmus Patient 1, approximately 14 weeks after starting, before 0.75",0.83
same,"Visual acuity, binocular","[4]; downbeat nystagmus Patient 1, approximately 14 weeks after starting, before 0.83",1
same,Side-effects,"[4]; downbeat nystagmus Patient 1, continued treatment at 5 gram per day",no side-effects
same,Clinical observation,"[4]; downbeat nystagmus Patient 2, 5 g/day",improvement of gait
same,"Median of slow phase velocity (SPV), horizontal",[4]; [9],0.05 °/s
same,"Median of slow phase velocity (SPV), vertical",[4]; [9],3.27 °/s
same,"Median of slow phase velocity (SPV), horizontal",[4]; [10],−0.02 °/s
same,"Median of slow phase velocity (SPV), vertical",[4]; [10],2.41 °/s
same,Maximal gait velocity,"[4]; downbeat nystagmus Patient 2, on treatment, increase from 122",155 cm/s
